Reference: ChEMBL document CHEMBL5729163, “Substituted cyclohexyl compounds as NOP inhibiiors” (2022)

These compounds were tested against Nociceptin receptor (Homo sapiens, UniProt P41146) (assay: Cell-Based NOP Assay: Formula (I) compounds were tested for antagonism of the nociceptin receptor (NOP) in a cell-based cAMP assay, using the LANCE cAMP Detection Kit, Perkin Elmer (Waltham, Mass.). This assay (LANCE cAMP) is a homogeneous, time-resolved fluorescence resonance energy transfer (TR-FRET) immunoassay designed to measure cAMP produced upon modulation of adenylyl cyclase activity by G protein-coupled receptors (GPCRs).ProtocolCells expressing human opioid NOP (ValiScreen cell line, cat #ES-230-C Perkin Elmer (Waltham, Mass.) were dispensed in simulation buffer (5 mM Hepes, 0.1% BSA, 0.5 mM IBMX in Hanks Buffered Saline Solution) at 2.5 μL cells per well (400 cells/well) into a 1536 white TC-treated assay plate. Compound was then added and plates were incubated for 15 minutes at room temperature. To each well was added 2.5 μL of a solution containing forskolin (3 μM final) and nociceptin peptide (390 pM final) diluted in stimulation buffer, and the plates were incubated for 30 minutes at room temperature. To each well was dispensed 5 μL of LANCE Ultra detection (1:300 dilution of anti-cAMP ULight with a 1:100 dilution of Eu-cAMP tracer diluted in cAMP Detection Buffer) reagent, and the plates were incubated for 1 hr at room temperature. The plate was then read on the ViewLux microplate reader (Perkin Elmer, Waltham, Mass.) using the LANCE 1536 protocol with 60 second exposure times and 50 μs delay. This protocol has an excitation wavelength of 340 nm (DUG11 filter) and emission wavelengths of 615 nm (Eu-Donor) and 665 nm (Alexa 647 cAMP antibody acceptor).Data AnalysisData was analyzed, normalized, and visualized using ACAS (John McNeil & Co.). Efficacy was calculated using activity of the vehicle (DMSO) as 0% efficacy and the activity of the corresponding reference positive control (SCH 221510, Tocris Bioscience (Pittsburgh, Pa.), Catalog number 3240) as 100% efficacy. Activity was calculated as the ratio of donor and acceptor emissions. All curve fits and IC50 determinations were performed using a non-linear regression model. The IC50 value was measured as the concentration at which half-maximal response was calculated.).
Chain of Nociceptin receptor (P41146 whole entry): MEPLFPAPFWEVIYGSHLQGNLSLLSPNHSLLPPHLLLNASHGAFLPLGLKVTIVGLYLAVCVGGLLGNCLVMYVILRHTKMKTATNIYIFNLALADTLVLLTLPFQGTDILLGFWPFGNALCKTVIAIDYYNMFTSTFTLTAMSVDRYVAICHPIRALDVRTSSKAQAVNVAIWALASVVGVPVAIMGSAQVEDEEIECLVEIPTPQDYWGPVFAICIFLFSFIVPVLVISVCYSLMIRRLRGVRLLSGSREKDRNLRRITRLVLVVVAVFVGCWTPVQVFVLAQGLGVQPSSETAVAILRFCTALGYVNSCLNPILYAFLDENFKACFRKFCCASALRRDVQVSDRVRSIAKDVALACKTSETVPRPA

Structure (SMILES)	IC50
CNC(=O)C1(NCC[C@H]2CC[C@H](c3ncc(F)cc3Cl)CC2)CCOCC1	0.001 to 0.01 µM
CCNC(=O)C1(NCC[C@H]2CC[C@@H](c3ncc(F)cc3Cl)CC2)CCOCC1	0.001 to 0.01 µM
NC(=O)C1(NCC[C@H]2CC[C@H](c3cc(F)ccc3Cl)CC2)CCOCC1	0.01 to 0.1 µM
O=C1C[C@H](NCC[C@H]2CC[C@@H](c3ncc(F)cc3Cl)CC2)CCN1	0.001 to 0.01 µM
NC(=O)C1(NCC[C@H]2CC[C@H](c3ccc(F)cc3C(F)(F)F)CC2)CCOCC1	0.01 to 0.1 µM
OC1COCCC1NCC[C@H]1CC[C@@H](c2ccc(F)cc2Cl)CC1 (stereo partly drawn)	< 0.001 µM
CNC(=O)C1(NCC[C@H]2CC[C@@H](c3c(F)cncc3Cl)CC2)CCOCC1	0.001 to 0.01 µM
COCC1(NCC[C@H]2CC[C@@H](c3ncc(F)cc3Cl)CC2)CCOCC1	0.01 to 0.1 µM
Fc1ccc(C2CCC(CCN[C@H]3CC[C@@H](F)C3)CC2)c(Cl)c1 (stereo partly drawn)	< 0.001 µM
NC(=O)C1(NCC[C@H]2CC[C@H](c3ncc(F)cc3Cl)CC2)CCOCC1	0.01 to 0.1 µM
CCNC(=O)C1(NCC[C@H]2CC[C@@H](c3ccc(F)cc3Cl)CC2)CCOCC1	0.001 to 0.01 µM
O=C1CC(NCC[C@H]2CC[C@@H](c3ccc(F)cc3Cl)CC2)CCN1 (stereo partly drawn)	< 0.001 µM
NC(=O)C1(NCC[C@H]2CC[C@@H](c3cc(F)ccc3Cl)CC2)CCOCC1	0.01 to 0.1 µM
NC(=O)C1(NCC[C@H]2CC[C@H](c3c(F)cc(F)cc3F)CC2)CCOCC1	0.001 to 0.01 µM
OC1CCCC1NCC[C@H]1CC[C@@H](c2ccc(F)cc2Cl)CC1 (stereo partly drawn)	< 0.001 µM
O=C1C[C@@H](NCC[C@H]2CC[C@@H](c3ccc(F)cc3Cl)CC2)CCN1	0.001 to 0.01 µM
N#C[C@H]1CC[C@@H](NCC[C@H]2CC[C@@H](c3ccc(F)cc3C(F)(F)F)CC2)CC1	< 0.001 µM
NC(=O)C1(NCC[C@H]2CC[C@@H](c3ccc(F)cc3C(F)(F)F)CC2)CCOCC1	0.001 to 0.01 µM
Cc1cc(F)cc(F)c1[C@H]1CC[C@@H](CCNC2(C(N)=O)CCOCC2)CC1	0.001 to 0.01 µM
O=C1C[C@H](NCC[C@H]2CC[C@H](c3ncc(F)cc3Cl)CC2)CCN1	0.001 to 0.01 µM
Cc1cc(F)ccc1[C@H]1CC[C@@H](CCNC2(C(N)=O)CCOCC2)CC1	0.001 to 0.01 µM
Fc1ccc([C@H]2CC[C@@H](CCNC3CCCC3(F)F)CC2)c(Cl)c1 (stereo partly drawn)	0.01 to 0.1 µM
NC(=O)C1(NCC[C@H]2CC[C@@H](c3ncc(F)cc3Cl)CC2)CCOCC1	0.01 to 0.1 µM
CNC(=O)C1(NCC[C@H]2CC[C@H](c3ccc(F)cc3C(F)(F)F)CC2)CCOCC1	0.001 to 0.01 µM
Fc1cccc(Cl)c1C1CCC(CCNC2CCCCC2)CC1 (stereo not drawn)	0.001 to 0.01 µM
Cc1c(F)c(F)ccc1[C@H]1CC[C@@H](CCNC2(C(N)=O)CCOCC2)CC1	0.01 to 0.1 µM
NC(=O)C1(NCC[C@H]2CC[C@H](c3c(F)cc(F)cc3Cl)CC2)CCOCC1	0.001 to 0.01 µM

Structure (SMILES)	IC50
CNC(=O)C1(NCC[C@H]2CC[C@@H](c3ccc(F)cc3C(F)(F)F)CC2)CCOCC1	0.001 to 0.01 µM
NC(=O)C1(NCC[C@H]2CC[C@@H](c3ccc(F)cc3Cl)CC2)CCCC1	0.01 to 0.1 µM
Cc1cc(F)c(F)cc1[C@H]1CC[C@@H](CCNC2(C(N)=O)CCOCC2)CC1	0.01 to 0.1 µM
OCC1(NCC[C@H]2CC[C@@H](c3ccc(F)cc3Cl)CC2)CCOCC1	0.001 to 0.01 µM
NC(=O)C1(NCC[C@H]2CC[C@H](c3ccc(F)cc3Cl)CC2)CCOCC1	0.01 to 0.1 µM
CNC(=O)C1(NCC[C@H]2CC[C@@H](c3ccc(F)cc3F)CC2)CCOCC1	0.01 to 0.1 µM
O=C1NCCC1NCC[C@H]1CC[C@@H](c2ccc(F)cc2Cl)CC1 (stereo partly drawn)	0.001 to 0.01 µM
CO[C@@H]1COCC[C@@H]1NCC[C@H]1CC[C@@H](c2ccc(F)cc2Cl)CC1	0.001 to 0.01 µM
Cc1cc(F)c(F)cc1[C@H]1CC[C@@H](CCN[C@@H]2CCNC(=O)C2)CC1	0.001 to 0.01 µM
O=C1C[C@H](NCC[C@H]2CC[C@@H](c3ccc(F)cc3Cl)CC2)CCN1	< 0.001 µM
NC(=O)C1(NCC[C@H]2CC[C@@H](c3c(F)cc(F)cc3Cl)CC2)CCOCC1	0.001 to 0.01 µM
CNC(=O)C1(NCC[C@H]2CC[C@@H](c3ccc(F)cc3Cl)CC2)CCOCC1	< 0.001 µM
Fc1cccc(Cl)c1C1CCC(CCNC2CCCC2)CC1 (stereo not drawn)	0.001 to 0.01 µM
Fc1cnc(C2CCC(CCNC3CCCCC3)CC2)c(Cl)c1 (stereo not drawn)	0.001 to 0.01 µM
CNC(=O)C1(NCC[C@H]2CC[C@H](c3ccc(F)cc3F)CC2)CCOCC1	0.001 to 0.01 µM
CNC(=O)C1(NCC[C@H]2CC[C@@H](c3ncc(F)cc3Cl)CC2)CCOCC1	0.001 to 0.01 µM
NC(=O)C1(NCC[C@H]2CC[C@@H](c3ccc(F)cc3F)CC2)CCOCC1	0.01 to 0.1 µM
CCNC(=O)C1(NCC[C@H]2CC[C@H](c3ncc(F)cc3Cl)CC2)CCOCC1	0.01 to 0.1 µM
CNC(=O)C1(NCC[C@H]2CC[C@@H](c3ccc(F)cc3Cl)CC2)CCCC1	0.001 to 0.01 µM
Fc1ccc([C@H]2CC[C@@H](CCNC3CCC(F)(F)C3)CC2)c(Cl)c1 (stereo partly drawn)	< 0.001 µM
CCNC(=O)C1(NCC[C@H]2CC[C@@H](c3ccc(F)cc3C(F)(F)F)CC2)CCOCC1	0.001 to 0.01 µM
NC(=O)C1(NCC[C@H]2CC[C@@H](c3ccc(F)cc3Cl)CC2)CCOCC1	0.001 to 0.01 µM
Cc1cc(F)ccc1[C@H]1CC[C@H](CCNC2(C(N)=O)CCOCC2)CC1	0.01 to 0.1 µM
COCC1(NCC[C@H]2CC[C@@H](c3ccc(F)cc3Cl)CC2)CCOCC1	0.001 to 0.01 µM
Cc1cc(F)cc(F)c1[C@H]1CC[C@H](CCNC2(C(N)=O)CCOCC2)CC1	0.001 to 0.01 µM
CNC(=O)C1(NCC[C@H]2CC[C@H](c3c(F)cncc3Cl)CC2)CCOCC1	0.01 to 0.1 µM
Fc1cnc(C2CCC(CCNC3(C4CC4)CCOCC3)CC2)c(Cl)c1 (stereo not drawn)	0.01 to 0.1 µM

The next lines start with the values.

IC50	Structure (SMILES)
0.001 to 0.01 µM	Fc1ccc([C@H]2CC[C@@H](CCNC3CCOCC3)CC2)c(F)c1
0.01 to 0.1 µM	Clc1cccnc1[C@H]1CC[C@@H](CCNC2CCOCC2)CC1
0.001 to 0.01 µM	Clc1ccccc1C1CCC(CCNC2CCOCC2)CC1 (stereo not drawn)
0.001 to 0.01 µM	Fc1ccc([C@H]2CC[C@H](CCNC3CCOCC3)CC2)c(Cl)c1
0.001 to 0.01 µM	Fc1ccc([C@H]2CC[C@H](CCNC3CCOCC3)CC2)c(F)c1
< 0.001 µM	Fc1cnc([C@H]2CC[C@@H](CCNC3CCOCC3)CC2)c(Cl)c1
0.001 to 0.01 µM	Fc1cnc([C@H]2CC[C@H](CCNC3CCOCC3)CC2)c(Cl)c1
0.001 to 0.01 µM	Fc1cc(Cl)ccc1C1CCC(CCNC2CCOCC2)CC1 (stereo not drawn)
0.01 to 0.1 µM	Fc1ccc(Cl)c(C2CCC(CCNC3CCCC3)CC2)c1 (stereo not drawn)
0.001 to 0.01 µM	Cc1cc(F)ccc1C1CCC(CCNC2CCOCC2)CC1 (stereo not drawn)
0.001 to 0.01 µM	Fc1ccc(Cl)c(C2CCC(CCNC3CCOCC3)CC2)c1 (stereo not drawn)
< 0.001 µM	Fc1cccc(Cl)c1[C@H]1CC[C@@H](CCNC2CCOCC2)CC1
0.01 to 0.1 µM	Cc1cccnc1[C@H]1CC[C@@H](CCNC2CCOCC2)CC1
0.001 to 0.01 µM	Cc1cc(F)ccc1C1CCC(CCNC2CCCC2)CC1 (stereo not drawn)
0.001 to 0.01 µM	Fc1cc(Cl)ccc1C1CCC(CCNC2CCCCC2)CC1 (stereo not drawn)
0.01 to 0.1 µM	Cc1cccnc1C1CCC(CCNC2CCOCC2)CC1 (stereo not drawn)
0.001 to 0.01 µM	Cc1cc(F)ccc1[C@H]1CC[C@H](CCNC2CCOCC2)CC1
0.001 to 0.01 µM	Fc1cccc(Cl)c1[C@H]1CC[C@H](CCNC2CCOCC2)CC1
< 0.001 µM	Fc1ccc([C@H]2CC[C@@H](CCNC3CCOCC3)CC2)c(Cl)c1
0.01 to 0.1 µM	Clc1cccnc1[C@H]1CC[C@H](CCNC2CCOCC2)CC1
0.01 to 0.1 µM	Fc1ccc(C2CCC(CCNC3CCCC3)CC2)c(F)c1 (stereo not drawn)
0.01 to 0.1 µM	Fc1cc(Cl)ccc1C1CCC(CCNC2CCCC2)CC1 (stereo not drawn)
< 0.001 µM	Cc1cc(F)ccc1[C@H]1CC[C@@H](CCNC2CCOCC2)CC1
< 0.001 µM	Fc1ccc([C@H]2CC[C@@H](CCNC3CCCC3)CC2)c(Cl)c1
